Data set [1] has as its system chondroitin 6-sulfotransferase (C6ST). Put plainly: Sulfotransferase activity measured with various glycosaminoglycan substrates and activators. The format is biochemical, chick. The following applies: for Transfer of sulfate group to glycosaminoglycan substrate by C6ST, in words: 25 nmol glycosaminoglycan, [35S]PAPS, 37° C., 20 minutes. The protocol:
In the purification steps, the sulfotransferase activity was measured as follows. The reaction solution had the following composition.
The activity was measured for various glycosaminoglycans as the substrate, by using 25 nmol of glycosaminoglycans (as an amount of galactosamine for chondroitin sulfate and dermatan sulfate, or as an amount of glucosamine for heparan sulfate and keratan sulfate) in place of chondroitin.
The reaction solution was incubated at 37° C. for 20 minutes in a reaction tube, and then the reaction was terminated by immersing the reaction tube in boiling water for 1 minute. After the termination of the reaction, 0.1 μmol of chondroitin sulfate A (as an amount of glucuronic acid) was added as a carrier, and three volumes of ethanol containing 1.3% potassium acetate was added thereto to precipitate ^35 S-labeled polysaccharide. The mixture was centrifuged at 10,000× g for 10 minutes to obtain a precipitate which was then dissolved in 70 μl of water. An aliquot (50 μl) of the obtained solution was injected into a desalting column equilibrated with 0.1 M NH4 HCO3, and eluted fractions containing the ^35 S-labeled polysaccharide were collected. To an aliquot (200 μl) of an obtained collected fraction, 1 ml of a scintillation cocktail (Clearsol, produced by nacalai tesque) was added to measure ^35 S-radioactivity. Thus incorporation of ^35 S into the polysaccharide was measured.
An aliquot (400 μl) was dispensed from the residual solution, to which 800 μl of ethanol containing 1.3% potassium acetate was added, followed by mixing. The mixture was placed on ice for 30 minutes, followed by centrifugation at 10,000× g for 10 minutes to precipitate the ^35 S-labeled polysaccharide. The precipitate was dissolved in 25 μl of a buffer containing 0.1 mg/ml of BSA, 0.05 M Tris-acetate, pH 7.5, and 10 milliunits of chondroitinase ACII (originating from Arthrobacter aurescens, produced by Seikagaku Corporation) to perform a reaction at 37° C. for 2 hours. The solution after the reaction was spotted onto Whatman No. 1 filter paper together with 2-acetamido-2-deoxy-3-O-(β-D-gluco-4-enopyranosyluronic acid)-6-O-sulfo-D-galactose (ΔDi-6S) and 2-acetamido-2-deoxy-3-O-(β-D-gluco-4-enopyranosyluronic acid)-4-O-sulfo-D-galactose (ΔDi-4S) (each 0.1 μmol, each produced by Seikagaku Corporation), followed by development for 20 hours with 1-butanol/acetic acid/1 M ammonium hydroxide (2:3:1 (V/V/V)).
Positions of ΔDi-6S and ΔDi-4S were inspected by using an ultraviolet lamp respectively. Portions corresponding to them were excised from the filter paper respectively, and were then placed in a scintillator prepared by dissolving 5 g of diphenyloxazole and 0.25 g of dimethyl-1,4-bis(2-(5-phenyloxazole))benzene in 1 L of toluene to measure radioactivity. […] According to incorporation of ^35 S into ΔDi-6S and ΔDi-4S, activities of chondroitin 6-sulfotransferase and chondroitin 4-sulfotransferase were calculated respectively. The activity to catalyze transfer of 1 pmol sulfate group/minute was defined as 1 unit.

For data set [2], the system named is chondroitin 6-sulfotransferase. Put plainly: Transfer reaction of sulfate group (35SO4) to lactosamine oligosaccharides by purified sulfotransferase. The format is biochemical, chick. The settings on record: for Incorporation of 35S: 0.025 μmol oligosaccharide acceptor, 25 pmol [35S]PAPS, 0.09 μg purified C6ST, 37° C., 60 minutes, pH 6.8; for Incorporation (transfer) of sulfate group into the oligosaccharide, in words: acceptor for chondroitin 6-sulfotransferase, Superdex 30 gel filtration, 35S radioactivity. The protocol:
Specifically, the transfer reaction of sulfate group (^35 SO4 was used as sulfate group in order to confirm sulfation) to various lactosamine oligosaccharides by using sulfotransferase was performed in accordance with the following method. A standard reaction mixture was a solution containing 2.5 μmol of imidazole-HCl (pH 6.8), 0.25 μmol of CaCl2, 0.1 μmol of dithiothreitol, 0.025 μmol of various lactosamine oligosaccharides, 25 pmol of [^35 S]PAPS (about 2.5×10^5 cpm), and 0.09 μg of purified chondroitin 6-sulfotransferase in a final volume of 50 μl. The reaction mixture was subjected to the reaction at 37° C. for 60 minutes in a reaction tube. The reaction was terminated by immersing the reaction tube in boiling water for 1 minute. After the termination of the reaction, lactosamine oligosaccharide (sulfated lactosamine oligosaccharide) to which ^35 SO4 had been transferred was separated from free ^35 SO4 and [^35 S]PAPS by means of gel filtration chromatography. A fraction (1 ml) was collected to measure the radioactivity.
The retention time of the sulfated lactosamine oligosaccharide was faster by 2 to 3 minutes than the retention time (indicated by arrows shown in FIG. 1) of the lactosamine oligosaccharide used (lactosamine oligosaccharide before sulfation (acceptor)). […] A peak of sulfated LN partially overlapped with those of free ^35 SO4 and [^35 S]PAPS. A radioactivity peak (indicated by a horizontal bar in FIG. 1A) of a product produced from LN was subjected to paper electrophoresis. As a result, the sulfated LN was separated from ^35 SO4 and [^35 S]PAPS. Therefore, incorporation of sulfate group (^35 SO4) into LN was calculated after the paper electrophoresis.
A general note: SEC sorts molecules by how far they enter the pores of the column.

Data set [3] in a line: Specific activity of purified chondroitin 6-sulfotransferase (35S incorporation into ΔDi-6S and ΔDi-4S). The format is biochemical. The following applies: chondroitin substrate. The protocol: In the purification steps, the sulfotransferase activity was measured as follows. The reaction solution had the following composition. Namely, the reaction solution (50 μl) contained 2.5 μmol of imidazol-HCl, pH 6.8, 1.25 μg of protamine hydrochloride, 0.1 μmol of dithiothreitol,25 nmol (as an amount of glucuronic acid) of chondroitin (produced by Seikagaku Corporation), 50 pmol of [^35 S]PAPS (adenosine 3'-phosphate, 5'-phosphosulfate), and the enzyme.
The reaction solution was incubated at 37° C. for 20 minutes in a reaction tube, and then the reaction was terminated by immersing the reaction tube in boiling water for 1 minute. […] To an aliquot (200 μl) of an obtained collected fraction, 1 ml of a scintillation cocktail (Clearsol, produced by nacalai tesque) was added to measure ^35 S-radioactivity. Thus incorporation of ^35 S into the polysaccharide was measured. […]
Positions of ΔDi-6S and ΔDi-4S were inspected by using an ultraviolet lamp respectively. Portions corresponding to them were excised from the filter paper respectively, and were then placed in a scintillator prepared by dissolving 5 g of diphenyloxazole and 0.25 g of dimethyl-1,4-bis(2-(5-phenyloxazole))benzene in 1 L of toluene to measure radioactivity. […] According to incorporation of ^35 S into ΔDi-6S and ΔDi-4S, activities of chondroitin 6-sulfotransferase and chondroitin 4-sulfotransferase were calculated respectively. […]

“Also recorded” adds a separate entry of the source.

chondroitin sulfate A: in data set [1], the “Transfer of sulfate group to glycosaminoglycan substrate by C6ST, in words” value (from here on “Transfer of sulfate group”) is “transfers the sulfate group”. Turning to `CC(=O)NC1C(O)OC(COS(=O)(=O)O)C(OC2OC(COS(=O)(=O)O)C(O)C(OC3OC(COS(=O)(=O)O)C(OC4OC(CO)C(O)C(OC5(C(=O)O)CC(O)C(NC(C)=O)C(C(O)C(O)CO)O5)C4O)C(O)C3NC(C)=O)C2O)C1O` [SL2L4, NeuAcα2--3Galβ1--4GlcNAc(6S)β1--3Gal(6S)β1--4GlcNAc(6S)], in data set [2], the “Incorporation of 35S” value worked out at 0.48 pmol/minute/μg protein and the “Incorporation (transfer) of sulfate group into the oligosaccharide, in words” value (“Incorporation (transfer)” below) is recorded as “observed”. For `CC(=O)N[C@H]1C(O)O[C@H](CO)[C@@H](O[C@@H]2O[C@H](CO)[C@H](O)[C@H](O)[C@H]2O)[C@@H]1O` (stereo partly shown) [LN, Galβ1--4GlcNAc] the same measures were 0.012 pmol/minute/μg protein and “observed”.

Take keratan sulfate: the “Transfer of sulfate group” value in data set [1] is “transfers the sulfate group”. On the same count and under the same terms, the value for dermatan sulfate was “only scarcely transferred”. Consider protamine, for which the “Effect on the activity of C6ST” value in data set [1] is given as “increased”. As to chondroitin sulfate C, the “Transfer of sulfate group” value in data set [1] is listed as “transfers the sulfate group”. In the case of chondroitin, the “Transfer of sulfate group” value in data set [1] is “transfers the sulfate group”.

In the case of heparan sulfate, the “Transfer of sulfate group” value in data set [1] was “only scarcely transferred”.

In the case of `[Cl][Mn][Cl]` [MnCl2], in data set [1], the “Effect on the activity of C6ST” value is listed as “increased”.

On to `CC(=O)NC1C(O)OC(CO)C(OC2OC(CO)C(O)C(OC3(C(=O)O)CC(O)C(NC(C)=O)C(C(O)C(O)CO)O3)C2O)C1O` (stereo not shown) [SLN, NeuAcα2--3Galβ1--4GlcNAc], for which, in data set [2], the “Incorporation of 35S” value was 0.022 pmol/minute/μg protein and the “Incorporation (transfer)” value is “observed”. As for chondroitin sulfate, in data set [1], the “Transfer of sulfate group” value was “transfers the sulfate group”.

Turning to chondroitin sulfate E, the “Transfer of sulfate group” value in data set [1] is on record as “only scarcely transferred”.

For `CC(=O)N[C@H]1[C@H](O[C@H]2[C@@H](O)[C@@H](COS(=O)(=O)O)O[C@@H](O[C@H]3[C@H](O)[C@@H](NC(C)=O)C(O)O[C@@H]3COS(=O)(=O)O)[C@@H]2O)O[C@H](COS(=O)(=O)O)[C@@H](O[C@@H]2O[C@H](CO)[C@H](O)[C@H](O)[C@H]2O)[C@@H]1O` (stereo partly drawn) [L2L4, Galβ1--4GlcNAc(6S)β1--3Gal(6S)β1--4GlcNAc(6S)], in data set [2], the “Incorporation of 35S” value is on record as 0.29 pmol/minute/μg protein and the “Incorporation (transfer)” value is given as “observed”. For `CC(=O)NC1C(O)OC(CO)C(OC2OC(CO)C(O)C(OC3OC(CO)C(OC4OC(CO)C(O)C(OC5(C(=O)O)CC(O)C(NC(C)=O)C(C(O)C(O)CO)O5)C4O)C(O)C3NC(C)=O)C2O)C1O` (stereo not shown) [SL1L1, NeuAcα2--3Galβ1--4GlcNAcβ1--3Galβ1--4GlcNAc], in that order: 0.034 pmol/minute/μg protein and “observed”.

With `CC(=O)NC1C(O)CC(OC2C(O)C(CO)OC(OC3C(CO)OC(O)C(NC(C)=O)C3OC3OC(C)C(O)C(O)C3O)C2O)(C(=O)O)OC1C(O)C(O)CO` (stereo not shown) [SLe^x, NeuAcα2--3Galβ1--4(Fucα1-3)GlcNAc], the “Incorporation (transfer)” value in data set [2] is “no radioactivity was detected; also recorded: not detected”. On to `CC(=O)N[C@H]1[C@H](O[C@H]2[C@@H](O)[C@@H](CO)O[C@@H](O[C@H]3[C@H](O)[C@@H](NC(C)=O)C(O)O[C@@H]3CO)[C@@H]2O)O[C@H](CO)[C@@H](O[C@@H]2O[C@H](CO)[C@H](O)[C@H](O)[C@H]2O)[C@@H]1O` (stereo partly shown) [L1L1, Galβ1--4GlcNAcβ1--3Galβ1--4GlcNAc], for which, in data set [2], the “Incorporation of 35S” value was 0.031 pmol/minute/μg protein and the “Incorporation (transfer)” value is given as “observed”.

B1: chondroitin 6-sulfotransferase: sulfotransferase purified from serum-free culture medium of chick chondrocyte (protein, UniProt Q92179 1-458, looked up)
Carbohydrate sulfotransferase …: MERRSALPQDFREVLHCLKMRSKYAVLLVFVVGLVIIEKENNFISRVSDKLKQSPQVLPEANETEASPVQAENGSLASLRQLDTAFSQLRTRLRNVTLQLAGELGIAAPEPRRHVLLMATTRTGSSFVGEFFNQQGNIFYLFEPLWHIERTVTFEPGGANAVGSALVYRDVLQQLLLCDLYILESFISPAPEEHLTAALFRRGSSHSLCEEPVCTPSLKKVFEKYHCKNRRCGPLNITLAAEACRRKQHMALKTVRIRQLEFLQPLAEDPRLDLRIIQLVRDPRAVLVSRMVAFSGKYESWKKWAAEGEAPLQEDEVQRLRGNCESIRLSAELGLRQPRWLRGRYMLVRYEDVARAPLRKALEMYRFAGIHPTPQVEEWIRANTQAPQDSNGIYSTQKNSSEQFEKWRFSIPFKLAQVVQDACEPAMRLFGYKLASSAQELTNRSLSLLEEGPPTRIT
B1: the “Specific activity of chondroitin 6-sulfotransferase” value in data set [3] (1 unit = transfer of 1 pmol sulfate group/minute) is on record as 4.3×10^5 units/mg. In addition, the “Ratio of activities of chondroitin 4-sulfotransferase/chondroitin 6-sulfotransferase” value in data set [3] (purified enzyme) is 0.02.

These data come from patent US5955325A, “Method for producing sulfated lactosamine oligosaccharide” (Seikagaku Kogyo Kabushiki Kaisha, priority 1996, dated 1999).
